# Source: US20150072943A1, “MIXTURE OF POLAR G[…] USE IN THE TREATMENT OF PAIN AND COPD” (SANOFI, priority 2012, published 2015)
# Experiments:
# [1] = tested on: release of TNFalpha induced by E. Coli-LPS in human bronchus parenchyma tissue culture; test: LPS-induced TNFalpha release in human bronchus parenchyma tissue culture; type: cell-based
# Description: Human parenchymal lung tissue was obtained from patients undergoing resection for carcinoma at San Gerardo Hospital, Monza, Italy. Patients had not received radiotherapy or chronic treatment with steroids, opioids or chemotherapy. All specimens of parenchymal tissue were obtained from sites distant from the tumour. The study was approved by the institutional ethics committee of San Gerardo hospital Monza Italy and all volunteers gave informed consent. Resected lung tissue was dissected free of tumour, large airways, pleura and visible blood vessels and finely chopped using dissecting scissors, into 2 mm fragments during several washes with Kreb's buffer (([…]: NaCl 118.4, KCl 4.7, CaCl2 2.5, KH2PO4 1.2, NaHCO3 25, glucose 11.7). Six explants (total weight approx. 30 mg) were incubated in culture bioreactor (Synthecon/NASA USA) with RPMI-1640 medium containing 1% penicillin, 1% streptomycin, and 1% gentamycin at 37° C. in 5% carbon dioxide/air for 16 hours. Tissue was then either stimulated with 100 ng/ml LPS (Sigma-Aldrich) or maintained in cell culture media alone for 4 hours. For neutralization of TNF, tissue was incubated with 0.01, 0.1, or 1 μM of VB3323 for 1 hr prior to stimulation with 100 ng/ml LPS. […] The levels of TNFalpha in the supernatant were measured by enzyme-linked immunosorbent assay (ELISA) and the concentration corrected for tissue weight. […]
# [2] = tested on: release of TNFalpha induced by E Coli LPS in mouse bronchus parenchyma tissue culture; test: LPS-induced TNFalpha release in mouse bronchus parenchyma tissue culture; type: cell-based
# Description: The animals (BALB/c male mice, 20-22 g body weight) were sacrificed by cervical dislocation. The thoracic cage was opened cutting the ribs. Clamping the heart with surgical tweezers, lungs and heart were dissected from the thoracic cavity using surgical scissors and putted in cold Krebs solution ([…]: NaCl 118.4, KCl 4.7, CaCl2 2.5, KH2PO4 1.2, NaHCO3 25, glucose 11.7). Large airways and visible blood vessels were dissected. The lungs were divided in fragments of 30 mg (˜5 pieces/mouse) and finely chopped (six pieces of ˜2 mm3 each fragment) using a scalpel. Six explants (total weight 30 mg) were incubated per well (2.0 cm2) of a 24 well plate with 1 ml of RPMI-1640 medium (RPMI-1640+antibiotic antimycotic solution 100x, Sigma-Aldrich) at 37° C. in 5% carbon dioxide/air for 16 hours. Then the medium was replaced with fresh medium and the tissue was treated for 1 hour with compound. After one hour, the tissue was stimulated with 100 ng/ml LPS E. Coli 055:B5 (Sigma-Aldrich). 4 hour after LPS stimulation, supernatant was harvested and stored at −80° C. until ELISA analysis. Three of six tissue explants were fixed in 10% formalin buffer for histological/immunohistochemical analysis. The other three tissue explants were put in RNA-later buffer overnight and then stored at −80° C. […]
smiles,measurement,setting,value
C[C@@H]1C[C@H]2[C@@H]3CCC4=CC(=O)C=C[C@]4(C)[C@@]3(F)[C@@H](O)C[C@]2(C)[C@@]1(O)C(=O)CO [Dexamethasone],inhibition at 1 µM,[1],69%
same,inhibition at 1 µM,[2],67%
